Results as given in patent US20130158024A1, “TRICYCLIC NECROSTATIN COMPOUNDS” (priority 2005, published 2013).

Tests used:
Jurkat T cells = assay: Necrosis (CICD) of Jurkat T cells induced by Fas ligand, cycloheximide and zVAD, ATP assay; format: cell-based, human; conditions: FasL/CHX/zVAD
Experimental: Jurkat cells were treated with 5 ng/ml of FasL without (A) or with cyclohexamide (CHX) (B) to induce apoptosis, or 5 ng/ml FasL, 1 μg/ml of CHX and 100 μM of zVAD.fmk to induce CICD (B). […] Cell viability was determined after 24 hours of incubation with indicated reagents using CellTiter-Glo ATP assay. The values represent viability relative to the control Jurkat cells without the treatment of FasL, which was set as 100% viability.
FIG. 34A is a graph showing the results of treating Jurkat T cells with Fas ligand (5 ng/ml), cyclohexamide (1 μg/ml) and zVAD (100 μM) in the presence of the indicated amounts of anti-necrotic compounds (4) and (5). Viability was determined 36 hours later using an ATP assay. The viability values are relative to the samples lacking Fas ligand, which were used as 100% viability controls. FIG. 34B is a graph as in FIG. 34A, in which the anti-necrotic compounds are (19) and (20).
Compounds were also tested in another necrosis assay utilizing human Jurkat T cells, Fas ligand to induce cell death, and zVAD to inhibit the apoptosis pathway. After 36 hours, cell viability was measure by the commercial CellTiter ATP cell viability assay (Promega).

SH-SY5Y cells [1] = assay: MPP+ cytotoxicity in SH-SY5Y neuroblastoma cells in the presence of zVAD, ATP assay; format: cell-based, human; conditions: zVAD 100 μM, compound 30 μM, 72 hours
Experimental: FIG. 15 is a chart showing that necrostatins attenuate MPP^+ cytotoxicity in human SH-SY5Y neuroblastoma cells. Cells were treated with 5 mM MPP^+ in the presence or absence of 100 μM zVAD.fmk and 30 μM necrostatins for 72 hours, followed by an ATP assay. Values represent cell viability normalized to the corresponding compound treated controls not treated with MPP^+.
(§1) FIG. 35A is a graph showing the results of treating SH-SY5Y cells with 1 mM MPP+ in the presence of zVAD (100 μM) and compound (19) (30 μM) for 72 hours. Cell viability was determined using an ATP assay. FIG. 35B is a graph as in FIG. 35A, in which cells were treated in the presence of 100 μM amyloid-beta 25-35 protein rather than MPP+.

SH-SY5Y cells [2] = assay: Amyloid-beta 25-35 toxicity in SH-SY5Y cells in the presence of zVAD, ATP assay; format: cell-based, human; conditions: 100 μM amyloid-beta 25-35, zVAD 100 μM, compound 30 μM, 72 hours
Experimental: as §1
To further verify that (19) can protect neuronal cells from necrosis, it was tested using two different neurotoxins in the human neuroblastoma cell line SH-SY5Y in the presence of zVAD. Cell death was induced by β-amyloid, a cellular model of Alzheimer's disease, and […] (MPP+), a cellular model of Parkinson's disease.

[3] = test system: Jurkat cells expressing dimerizable FADD; conditions: Homo sapiens, Jurkat, 36 h
[4] = test system: Jurkat cells expressing dimerizable FADD; assay: Toxicity of compound alone in Jurkat cells expressing dimerizable FADD (no dimerizer); conditions: compound in the absence of dimerizer

Compound	inhibition of CICD/necrosis of Jurkat cells, in words (Jurkat T cells)	attenuation of MPP+ cytotoxicity, in words (SH-SY5Y cells [1])	reduction of β-amyloid toxicity in SH-SY5Y, in words (SH-SY5Y cells [2])	EC50 [3]	LD50 [4]
COc1ccc([C@H]2[C@H]3CCc4ccc(OC)cc4C3=NN2C(C)=O)cc1 (relative stereo) [Compound 141, (3R,3aR)-rel-2-acetyl-3,3a,4,5-tetrahydro-3-(4-methoxyphenyl)-8-methoxy-2H-benz[g]indazole]	efficiently inhibit necrosis and result in high cell viability	effective in reducing toxicity as measured by cellular ATP levels	effective in reducing toxicity as measured by cellular ATP levels		
Cc1cc(O)c(C(=O)/C=C/c2ccc(O)c([N+](=O)[O-])c2)c(=O)o1 [Nec-2]		especially pronounced in case of Nec-2		27.3 µM	134 µM
